Results published in PubChem BioAssay (NCI).
“And” between values parts separate entries of the source, which are not always exact repeats. Equal entries are not always repeated.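 Values below derive from 48-hour exposures of cells grown in 96-well plates, with endpoints linearly interpolated between the two concentrations bracketing the appropriate inhibition level. The concentration for 50% growth inhibition is given as GI50. TGI denotes the concentration required for complete inhibition of growth.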

Assays:
Assay in all cases: DTP human tumour cell line panel, 48 h
786-0 renal = tested on: 786-0 renal
CCRF-CEM leukemia = tested on: CCRF-CEM leukemia
HT29 colon = tested on: HT29 colon
MALME-3M melanoma = tested on: MALME-3M melanoma
MCF7 breast = tested on: MCF7 breast
NCI-H23 lung = tested on: NCI-H23 lung
SK-MEL-28 melanoma = tested on: SK-MEL-28 melanoma
SW-620 colon = tested on: SW-620 colon
UACC-257 melanoma = tested on: UACC-257 melanoma
UACC-62 melanoma = tested on: UACC-62 melanoma

## CC(C)=CCOc1cc(NC(=S)c2ccsc2C)ccc1Cl
786-0 renal
  TGI: > 100 µM
CCRF-CEM leukemia
  TGI: > 100 µM
HT29 colon
  TGI: > 100 µM
MALME-3M melanoma
  TGI: > 100 µM
MCF7 breast
  TGI: > 100 µM
NCI-H23 lung
  TGI: > 100 µM
SK-MEL-28 melanoma
  TGI: > 100 µM
SW-620 colon
  TGI: > 100 µM
UACC-257 melanoma
  TGI: > 100 µM
UACC-62 melanoma
  TGI: > 100 µM

## C=C1[C@@](C)([C@@H]2CCCS2)[C@H]2C(C)=C[C@]1(C)n1c(=O)n(-c3ccccc3)c(=O)n12
786-0 renal
  TGI: > 100 µM
CCRF-CEM leukemia
  TGI: > 100 µM
HT29 colon
  TGI: > 100 µM
MALME-3M melanoma
  TGI: > 100 µM
MCF7 breast
  TGI: > 100 µM
NCI-H23 lung
  TGI: > 100 µM
SK-MEL-28 melanoma
  TGI: > 100 µM
SW-620 colon
  TGI: > 100 µM
UACC-257 melanoma
  TGI: > 100 µM
UACC-62 melanoma
  TGI: > 100 µM

## COC(=O)CCc1c(Cc2ccc[nH]2)[nH]c(C(=O)OCc2ccccc2)c1C
786-0 renal
  TGI: 31.4 µM
CCRF-CEM leukemia
  TGI: > 100 µM
HT29 colon
  TGI: 38.9 µM
MALME-3M melanoma
  TGI: 38.3 µM
MCF7 breast
  TGI: 35.7 µM
NCI-H23 lung
  TGI: 43.9 µM
SK-MEL-28 melanoma
  TGI: 39.7 µM
SW-620 colon
  TGI: 45.7 µM
UACC-257 melanoma
  TGI: 38.9 µM
UACC-62 melanoma
  TGI: 66.8 µM

## COc1ccc(C(Cc2ccccc2)C2NC(=S)NC2=O)cc1 (centres undefined)
786-0 renal
  TGI: > 25 µM
CCRF-CEM leukemia
  TGI: > 25 µM
HT29 colon
  TGI: > 25 µM
MALME-3M melanoma
  TGI: > 25 µM
MCF7 breast
  TGI: > 25 µM
NCI-H23 lung
  TGI: > 25 µM
SK-MEL-28 melanoma
  TGI: > 25 µM
SW-620 colon
  TGI: > 25 µM
UACC-257 melanoma
  TGI: > 25 µM

## Cc1ccc(-c2cc(O)c3nc4ccccc4n3c2)cc1
786-0 renal
  TGI: > 100 µM
CCRF-CEM leukemia
  TGI: > 100 µM
HT29 colon
  TGI: > 100 µM
MALME-3M melanoma
  TGI: > 100 µM
MCF7 breast
  TGI: > 100 µM
NCI-H23 lung
  TGI: > 100 µM
SK-MEL-28 melanoma
  TGI: > 100 µM
SW-620 colon
  TGI: > 100 µM
UACC-257 melanoma
  TGI: > 100 µM
UACC-62 melanoma
  TGI: > 100 µM

## Oc1ccccc1C1C=C(c2ccccc2)NC(N2CCCCC2)=C1c1nc2ccccc2[nH]1 (centres undefined)
786-0 renal
  TGI: 25.7 µM
CCRF-CEM leukemia
  TGI: 47.7 µM
HT29 colon
  TGI: 29.3 µM
MALME-3M melanoma
  TGI: 29.6 µM
MCF7 breast
  TGI: 24.9 µM
NCI-H23 lung
  TGI: 30.3 µM
SK-MEL-28 melanoma
  TGI: 30.6 µM
SW-620 colon
  TGI: 30.5 µM
UACC-257 melanoma
  TGI: 30.7 µM
UACC-62 melanoma
  TGI: 29.8 µM

## NC(=O)c1cc(N(CCO)CCO)c([N+](=O)[O-])cc1[N+](=O)[O-]
786-0 renal
  TGI: > 100 µM
CCRF-CEM leukemia
  TGI: > 100 µM
HT29 colon
  TGI: > 100 µM
MALME-3M melanoma
  TGI: > 100 µM
MCF7 breast
  TGI: > 100 µM
NCI-H23 lung
  TGI: > 100 µM
SK-MEL-28 melanoma
  TGI: > 100 µM
SW-620 colon
  TGI: > 100 µM
UACC-257 melanoma
  TGI: > 100 µM
UACC-62 melanoma
  TGI: > 100 µM

## O=C1CC(C(OCc2ccccc2)C(OCc2ccccc2)C(COCc2ccccc2)OCc2ccccc2)CC(=O)N1 (centres undefined)
786-0 renal
  TGI: > 100 µM
CCRF-CEM leukemia
  GI50: 19.4 µM and 64.4 µM
  TGI: 80.4 µM and > 75 µM
HT29 colon
  TGI: > 75 µM
MALME-3M melanoma
  TGI: > 100 µM
MCF7 breast
  TGI: > 100 µM
NCI-H23 lung
  TGI: > 100 µM
SK-MEL-28 melanoma
  TGI: > 100 µM
SW-620 colon
  TGI: > 100 µM
UACC-257 melanoma
  TGI: > 100 µM

## Nc1ccc(Nc2cc(=O)[nH]c(=O)[nH]2)cc1
786-0 renal
  TGI: > 100 µM
CCRF-CEM leukemia
  TGI: > 100 µM
HT29 colon
  TGI: > 100 µM
MALME-3M melanoma
  TGI: > 100 µM
MCF7 breast
  TGI: > 100 µM
NCI-H23 lung
  TGI: > 100 µM
SK-MEL-28 melanoma
  TGI: > 100 µM
SW-620 colon
  TGI: > 100 µM
UACC-257 melanoma
  TGI: > 100 µM
UACC-62 melanoma
  TGI: > 100 µM

## CC(=O)NC1=C(NCCCl)C(=O)c2ccccc2C1=O
786-0 renal
  TGI: > 100 µM
CCRF-CEM leukemia
  TGI: 66 µM
HT29 colon
  TGI: 75.1 µM
MALME-3M melanoma
  TGI: 27.1 µM
MCF7 breast
  TGI: > 100 µM
NCI-H23 lung
  TGI: 80.1 µM
SK-MEL-28 melanoma
  TGI: > 100 µM
SW-620 colon
  TGI: > 100 µM
UACC-257 melanoma
  TGI: 33.7 µM
UACC-62 melanoma
  TGI: 42.9 µM

## COC(=O)[C@@](C)(COC(=O)C(C)(C)C)NC(=O)OC(C)(C)C
786-0 renal
  TGI: > 100 µM
CCRF-CEM leukemia
  TGI: > 100 µM
HT29 colon
  TGI: > 100 µM
MALME-3M melanoma
  TGI: > 100 µM
MCF7 breast
  TGI: > 100 µM
NCI-H23 lung
  TGI: > 100 µM
SK-MEL-28 melanoma
  TGI: > 100 µM
SW-620 colon
  TGI: > 100 µM
UACC-257 melanoma
  TGI: > 100 µM
UACC-62 melanoma
  TGI: > 100 µM

## CC(=O)OC12c3ccccc3C(c3ccccc31)C1C(=O)N(c3ccccn3)C(=O)C12 (centres undefined)
786-0 renal
  TGI: > 100 µM
CCRF-CEM leukemia
  TGI: > 100 µM
HT29 colon
  TGI: > 100 µM
MALME-3M melanoma
  TGI: > 100 µM
MCF7 breast
  TGI: > 100 µM
NCI-H23 lung
  TGI: > 100 µM
SK-MEL-28 melanoma
  TGI: > 100 µM
SW-620 colon
  TGI: > 100 µM
UACC-257 melanoma
  TGI: > 100 µM
UACC-62 melanoma
  TGI: > 100 µM

## Cc1nc2n(c1/C=C1/C(=O)Nc3ccccc31)CCS2
786-0 renal
  TGI: > 100 µM
CCRF-CEM leukemia
  TGI: > 100 µM
HT29 colon
  TGI: > 100 µM
MALME-3M melanoma
  TGI: > 100 µM
MCF7 breast
  TGI: > 100 µM
NCI-H23 lung
  TGI: > 100 µM
SK-MEL-28 melanoma
  TGI: > 100 µM
SW-620 colon
  TGI: > 100 µM
UACC-257 melanoma
  TGI: > 100 µM
UACC-62 melanoma
  TGI: > 100 µM

## OCC(CCc1ccccc1I)C1=CCC2(CC1)OCCO2 (centres undefined)
786-0 renal
  TGI: 42.5 µM
CCRF-CEM leukemia
  TGI: 35.7 µM
HT29 colon
  TGI: 41.6 µM
MALME-3M melanoma
  TGI: 33.6 µM
MCF7 breast
  TGI: 55.1 µM
NCI-H23 lung
  TGI: 48.9 µM
SK-MEL-28 melanoma
  TGI: 35 µM
SW-620 colon
  TGI: 61.5 µM
UACC-257 melanoma
  TGI: 45.1 µM
UACC-62 melanoma
  TGI: 35.6 µM

## COC(=O)NNC(c1ccc(Cl)cc1)c1ccc(Cl)cc1
786-0 renal
  TGI: 35 µM
CCRF-CEM leukemia
  TGI: 54.1 µM
HT29 colon
  TGI: 34.2 µM
MALME-3M melanoma
  TGI: 43.8 µM
MCF7 breast
  TGI: 75.6 µM
NCI-H23 lung
  TGI: 34.6 µM
SK-MEL-28 melanoma
  TGI: 43 µM
SW-620 colon
  TGI: 70 µM
UACC-257 melanoma
  TGI: 39 µM
UACC-62 melanoma
  TGI: 30.9 µM

## O=C(O)CC[P+](c1ccccc1)(c1ccccc1)c1ccccc1
786-0 renal
  TGI: > 100 µM
CCRF-CEM leukemia
  TGI: > 100 µM
HT29 colon
  TGI: > 100 µM
MALME-3M melanoma
  TGI: > 100 µM
MCF7 breast
  TGI: > 100 µM
NCI-H23 lung
  TGI: > 100 µM
SK-MEL-28 melanoma
  TGI: > 100 µM
SW-620 colon
  TGI: > 100 µM
UACC-257 melanoma
  TGI: > 100 µM
UACC-62 melanoma
  TGI: > 100 µM

## CCOC(=O)C(NC(=O)CC)(Nc1ccc(S(=O)(=O)Nc2onc(C)c2C)cc1)C(F)(F)F (centres undefined)
786-0 renal
  TGI: > 100 µM
CCRF-CEM leukemia
  TGI: > 100 µM
HT29 colon
  TGI: > 100 µM
MALME-3M melanoma
  TGI: > 100 µM
MCF7 breast
  TGI: > 100 µM
NCI-H23 lung
  TGI: > 100 µM
SK-MEL-28 melanoma
  TGI: > 100 µM
SW-620 colon
  TGI: > 100 µM
UACC-257 melanoma
  TGI: > 100 µM
UACC-62 melanoma
  TGI: > 100 µM

## CC12CCCCC1=[N+]([O-])C(C)(C)N2O (centres undefined)
786-0 renal
  TGI: > 100 µM
CCRF-CEM leukemia
  TGI: > 100 µM
HT29 colon
  TGI: > 100 µM
MALME-3M melanoma
  TGI: > 100 µM
MCF7 breast
  TGI: > 100 µM
NCI-H23 lung
  TGI: > 100 µM
SK-MEL-28 melanoma
  TGI: > 100 µM
SW-620 colon
  TGI: > 100 µM
UACC-257 melanoma
  TGI: > 100 µM
UACC-62 melanoma
  TGI: > 100 µM
